Results from patent publication US9234000B2, “Benzylamine derivatives as inhibitors of plasma kallikrein” (KalVista Pharmaceuticals Limited, priority 2011, dated 2016).
Read-outs that look alike come from different tables or passages of the source.

Key:
[1] = target: Human KLK1 (Homo sapiens (Human), UniProt P06870); experiment: Determination of the IC50 for KLK1; type: biochemical; conditions: Human KLK1, 37° C., substrate H-DVal-Leu-Arg-AFC
Method: Determination of the IC50 for KLK1
(§1) KLK1 inhibitory activity in vitro was determined using standard published methods (see e.g. Johansen et al., Int. J. Tiss. Reac. 1986, 8, 185; Shori et al., Biochem. Pharmacol., 1992, 43, 1209; Stürzebecher et al., Biol. Chem. Hoppe-Seyler, 1992, 373, 1025). Human KLK1 (Callbiochem) was incubated at 37° C. with the fluorogenic substrate H-DVal-Leu-Arg-AFC and various concentrations of the test compound. Residual enzyme activity (initial rate of reaction) was determined by measuring the change in optical absorbance at 410 nm and the IC50 value for the test compound was determined.

[2] = target: Human plasma kallikrein (Homo sapiens (Human), UniProt P03952); experiment: Determination of the IC50 for plasma kallikrein; type: biochemical; conditions: 37° C., read-out: IC50 (human PKal)
Sequence of Human plasma kallikrein (P03952 391-638): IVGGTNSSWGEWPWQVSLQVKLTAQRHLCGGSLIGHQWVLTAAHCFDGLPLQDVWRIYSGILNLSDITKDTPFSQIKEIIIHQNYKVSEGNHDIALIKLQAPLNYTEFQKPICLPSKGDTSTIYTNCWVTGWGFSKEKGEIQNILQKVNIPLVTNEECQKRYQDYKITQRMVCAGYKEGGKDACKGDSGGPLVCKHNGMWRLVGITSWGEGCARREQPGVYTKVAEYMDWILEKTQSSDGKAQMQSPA
Sequence of Human plasma kallikrein (P03952 20-390 partner): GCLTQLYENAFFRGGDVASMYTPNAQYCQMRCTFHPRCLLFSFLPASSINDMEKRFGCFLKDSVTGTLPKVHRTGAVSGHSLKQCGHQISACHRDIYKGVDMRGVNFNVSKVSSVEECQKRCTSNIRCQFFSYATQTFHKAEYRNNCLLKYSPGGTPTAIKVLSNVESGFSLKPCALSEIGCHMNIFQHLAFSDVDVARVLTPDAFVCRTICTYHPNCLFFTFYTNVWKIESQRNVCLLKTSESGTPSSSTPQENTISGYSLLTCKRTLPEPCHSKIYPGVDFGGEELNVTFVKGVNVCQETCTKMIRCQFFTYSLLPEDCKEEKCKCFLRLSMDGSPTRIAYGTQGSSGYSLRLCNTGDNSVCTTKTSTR
Method: Determination of the IC50 for Plasma Kallikrein
as §1, with “Plasma kallikrein” for “KLK1”, “Stiirzebecher” for “Stürzebecher”, “plasma kallikrein (Protogen)” for “KLK1 (Callbiochem)”, “H-DPro-Phe-Arg-AFC” for “H-DVal-Leu-Arg-AFC”

[3] = fluorogenic substrate H-DPro-Phe-Arg-AFC

Sequence of Human KLK1 (P06870 25-262): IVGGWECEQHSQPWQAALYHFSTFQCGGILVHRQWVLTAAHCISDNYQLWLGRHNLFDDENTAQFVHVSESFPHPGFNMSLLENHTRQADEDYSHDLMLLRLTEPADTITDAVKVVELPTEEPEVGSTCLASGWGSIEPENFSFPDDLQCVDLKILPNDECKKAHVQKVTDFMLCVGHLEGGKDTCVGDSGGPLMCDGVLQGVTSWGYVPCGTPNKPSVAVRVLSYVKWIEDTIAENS

Row | Compound | IC50 ([1]; Table 13) [nM] | IC50 ([2]; substrate H-DPro-Phe-Arg-AFC) [nM] | IC50 ([1]; Table 12) [nM] | IC50 [2, 3] [nM]
1 | CCOc1ccc(C[C@@H](NC(=O)N(CC)Cc2ccccc2)C(=O)N[C@@H](Cc2ccccc2)C(=O)NCc2ccc(CN)cc2)cc1 [Example 103, (R)-N-[(S)-1-(4-Aminomethyl-benzylcarbamoyl)-2-phenyl-ethyl]-2-(3-benzyl-3-ethyl-ureido)-3-(4-ethoxy-phenyl)-propionamide] | > 10000 | 10000 | – | –
2 | CCOc1ccc(C[C@@H](NS(=O)(=O)Cc2ccccc2)C(=O)N[C@@H](Cc2ccccc2)C(=O)NCc2ccc(CN)cc2)cc1 [Example 100, (R)-N-[(S)-1-(4-Aminomethyl-benzylcarbamoyl)-2-phenyl-ethyl]-3-(4-ethoxy-phenyl)-2-phenylmethanesulfonylamino-propionamide] | 2900 | 474 | – | –
3 | CCOc1ccc(C[C@@H](NC(=O)c2cccc(OC)n2)C(=O)N[C@@H](Cc2ccccc2)C(=O)NCc2ccc(CN)cc2)cc1 [Example 120, 6-Methoxy-pyridine-2-carboxylic acid [(R)-1-[(S)-1-(4-aminomethyl-benzylcarbamoyl)-2-phenyl-ethylcarbamoyl]-2-(4-ethoxy-phenyl)-ethyl]-amide] | > 10000 | 540 | – | –
4 | CCOc1ccc(C[C@@H](NC(=O)CC(F)(F)F)C(=O)N[C@@H](Cc2ccc(Cl)c(Cl)c2)C(=O)NCc2ccc(CN)cc2)cc1 [Example 172, N-[(R)-1-[(S)-1-(4-Aminomethyl-benzylcarbamoyl)-2-(3,4-dichloro-phenyl)-ethylcarbamoyl]-2-(4-ethoxy-phenyl)-ethyl]-3,3,3-trifluoro-propionamide] | > 10000 | 881 | – | –
5 | CCOc1ccc(C[C@@H](NC(=O)c2cccnc2C)C(=O)N[C@@H](Cc2ccccc2)C(=O)NCc2ccc(CN)cc2)cc1 [Example 105, N-[(R)-1-[(S)-1-(4-Aminomethyl-benzylcarbamoyl)-2-phenyl-ethylcarbamoyl]-2-(4-ethoxy-phenyl)-ethyl]-2-methyl-nicotinamide] | > 10000 | 185 | – | –
6 | CCOc1ccc(C[C@@H](NC(=O)c2ccccc2)C(=O)N[C@@H](Cc2ccccc2)C(=O)NCc2ccc(CN)c(C(F)(F)F)c2)cc1 [Example 156, N-[(R)-1-[(S)-1-(4-Aminomethyl-3-trifluoromethyl-benzylcarbamoyl)-2-phenyl-ethylcarbamoyl]-2-(4-ethoxy-phenyl)-ethyl]-benzamide] | > 10000 | 1080 | – | –
7 | NCc1ccc(CNC(=O)[C@H](Cc2ccccc2)NC(=O)[C@@H](Cc2ccc(OCc3cccc(F)c3)cc2)NC(=O)c2ccccc2)cc1 [Example 136, N-{(R)-1-[(S)-1-(4-Aminomethyl-benzylcarbamoyl)-2-phenyl-ethylcarbamoyl]-2-[4-(3-fluoro-benzyloxy)-phenyl]-ethyl}-benzamide] | > 10000 | 1020 | – | –
8 | CN(CC(N)=O)[C@H](CC1CCCCC1)C(=O)N[C@@H](Cc1ccccc1)C(=O)NCc1ccc(CN)cc1 [Example 48, (R)-N-[(S)-1-(4-Aminomethyl-benzylcarbamoyl)-2-phenyl-ethyl]-2-(carbamoylmethyl-methyl-amino)-3-cyclohexyl-propionamide] | – | – | > 10000 | 4700
9 | CCOc1ccc(C[C@@H](NC(=O)c2cnc(Cl)c(Cl)c2)C(=O)N[C@@H](Cc2ccccc2)C(=O)NCc2ccc(CN)cc2)cc1 [Example 107, N-[(R)-1-[(S)-1-(4-Aminomethyl-benzylcarbamoyl)-2-phenyl-ethylcarbamoyl]-2-(4-ethoxy-phenyl)-ethyl]-5,6-dichloro-nicotinamide] | 7500 | 133 | – | –
10 | CCOc1ccc(C[C@@H](NC(=O)c2ccccn2)C(=O)N[C@@H](Cc2ccccc2)C(=O)NCc2ccc(CN)c(F)c2)cc1 [Example 168, Pyridine-2-carboxylic acid [(R)-1-[(S)-1-(4-aminomethyl-3-fluoro-benzylcarbamoyl)-2-phenyl-ethylcarbamoyl]-2-(4-ethoxy-phenyl)-ethyl]-amide] | > 10000 | 76 | – | –
11 | COc1ccc(C[C@@H](NC(=O)c2ccccc2)C(=O)N[C@@H](Cc2ccccc2)C(=O)NCc2ccc(CN)cc2)cc1 [Example 138, N-[(R)-1-[(S)-1-(4-Aminomethyl-benzylcarbamoyl)-2-phenyl-ethylcarbamoyl]-2-(4-methoxy-phenyl)-ethyl]-benzamide] | > 10000 | 310 | – | –
12 | COC(=O)CN[C@H](CC1CCCCC1)C(=O)N[C@@H](Cc1ccccc1)C(=O)NCc1ccc(CN)cc1 [Example 47, {(R)-1-[(S)-1-(4-Aminomethyl-benzylcarbamoyl)-2-phenyl-ethylcarbamoyl]-2-cyclohexyl-ethylamino}-acetic acid methyl ester] | – | – | > 10000 | 2100
13 | CCOc1ccc(C[C@@H](NC(=O)CC)C(=O)N[C@@H](Cc2cccnc2)C(=O)NCc2ccc(CN)cc2)cc1 [Example 170, (R)-N-[(S)-1-(4-Aminomethyl-benzylcarbamoyl)-2-pyridin-3-yl-ethyl]-3-(4-ethoxy-phenyl)-2-propionylamino-propionamide] | > 10000 | 51 | – | –
14 | CCC(=O)N[C@H](Cc1ccc(C(F)(F)F)cc1)C(=O)N[C@@H](Cc1ccc(Cl)c(Cl)c1)C(=O)NCc1ccc(CN)cc1 [Example 19] | – | – | > 10000 | 10000
15 | CCOc1ccc(C[C@@H](NC(=O)c2cccs2)C(=O)N[C@@H](Cc2ccc(Cl)c(Cl)c2)C(=O)NCc2ccc(CN)cc2)cc1 [Example 169, Thiophene-2-carboxylic acid [(R)-1-[(S)-1-(4-aminomethyl-benzylcarbamoyl)-2-(3,4-dichloro-phenyl)-ethylcarbamoyl]-2-(4-ethoxy-phenyl)-ethyl]-amide] | 9900 | 44 | – | –
16 | CCOc1ccc(C[C@@H](NC(=O)c2cc(F)nc(F)c2F)C(=O)N[C@@H](Cc2ccccc2)C(=O)NCc2ccc(CN)cc2)cc1 [Example 108, N-[(R)-1-[(S)-1-(4-Aminomethyl-benzylcarbamoyl)-2-phenyl-ethylcarbamoyl]-2-(4-ethoxy-phenyl)-ethyl]-2,3,6-trifluoro-isonicotinamide] | > 10000 | 232 | – | –
17 | NCc1ccc(CNC(=O)[C@H](Cc2ccccc2)NC(=O)[C@@H](Cc2ccc(Cl)cc2)NC(=O)c2ccccc2)cc1 [Example 127, N-[(R)-1-[(S)-1-(4-Aminomethyl-benzylcarbamoyl)-2-phenyl-ethylcarbamoyl]-2-(4-chloro-phenyl)-ethyl]-benzamide] | > 10000 | 521 | – | –
18 | NCc1ccc(CNC(=O)[C@H](Cc2ccccc2)NC(=O)[C@@H](CC2CCCCC2)NC(=O)c2ccccc2)cc1 [Example 126, N-{(R)-1-[(S)-1-(4-Aminomethyl-benzylcarbamoyl)-2-phenyl-ethylcarbamoyl]-2-cyclohexyl-ethyl}-benzamide] | > 10000 | 4010 | – | –
19 | COc1ccc(C[C@@H](NC(=O)c2ccccc2)C(=O)N[C@@H](Cc2ccccc2)C(=O)NCc2ccc(CN)cc2)cn1 [Example 137, N-[(R)-1-[(S)-1-(4-Aminomethyl-benzylcarbamoyl)-2-phenyl-ethylcarbamoyl]-2-(6-methoxy-pyridin-3-yl)-ethyl]-benzamide] | > 10000 | 7540 | – | –
20 | CCOc1ccc(C[C@@H](NC(=O)c2ccccc2)C(=O)N[C@@H](Cc2c[nH]cn2)C(=O)NCc2ccc(CN)cc2)cc1 [Example 177, N-[(R)-1-[(S)-1-(4-Aminomethyl-benzylcarbamoyl)-2-(1H-imidazol-4-yl)-ethylcarbamoyl]-2-(4-ethoxy-phenyl)-ethyl]-benzamide] | > 10000 | 457 | – | –
